Assay results published in patent US20090264528A1, “SERINE PALMITOYLCOA TRANSFERASE (SPT) INHIBITION BY MYRIOCIN OR GENETIC DEFICIENCY DECREASES CHOLESTEROL ABSORPTION” (The Research Foundation of State University of New York, priority 2008, published 2009).
Entries after “also recorded” stand apart in the source; their conditions may differ.

Assays:
ABCA1 mRNA = assay: Real-time PCR, ABCA1 mRNA; assay type: in vivo, mouse; settings: for decrease of ABCA1 mRNA levels: liver, P<0.05; for decrease of ABCA1 mRNA levels compared with controls: small intestine, P<0.01
Method: FIGS. 9A-F depict that Mouse small intestine and liver NPC1L1, ABCG5/G8, and ABCA1 mRNA measurements. NPC1L1, ABCG5/G8, and ABCA1 mRNA levels were measured by real-time PCR as described in “Methods and Materials.” FIG. 9A, jejunum from WT mice with or without myriocin treatment; FIG. 9B, jejunum from apoE KO mice with or without myriocin treatment; FIG. 9C, jejunum from WT and Sptlc1^+/− mice; FIG. 9D, liver from WT mice with or without myriocin treatment; FIG. 9E, liver from apoE KO mice with or without myriocin treatment; FIG. 9F, liver from WT and Sptlc1^+/− mice. Values are mean±SD, n=5. *P<0.01.
Real-time PCR examined genes' expression: Mice were sacrificed by cervical dislocation. Jejunum was dissected, and total RNA extracted with Trizol (Invitrogen). cDNA was synthesized with an Invitrogen kit. Polymerase chain reaction (PCR) was performed on a total volume of 20 microl with the sybergreen kit from Applied Biosystems, 18S being used as an internal control. The amplification program consisted of activation at 95 degrees C. for 10 minutes, followed by 40 amplification cycles: 95 degrees C. for 15 seconds, 60 degrees C. for 1 minute. Each sample was triplicated. The genes' relative expression was expressed as mean±SD. The primers are located in the below table which lists the name, sequence, and sequence identification number.
For further elucidation of the possible mechanisms for cholesterol absorption reduction in the SPT-deficient small intestine, NPC1L1, ABCG5/G8, and ABCA1 mRNA levels in myriocin-treated WT, apoE KO, and Sptlc1^+/− mice, as well as in controls were measured. […] Moreover, intestinal MTP activity was not influenced by SPT deficiency (data not shown). Also, the liver mRNA levels were measured to find that myriocin treatment or Sptlc1 deficiency has no influence on ABCG5/G8 mRNA levels […]. […] NPC1L1 mRNA in WT or Sptlc1^+/− livers were not detected (data not shown).

small intestine = assay: Small intestine morphology, hematoxylin and eosin staining; assay type: in vivo, mouse; settings: WT and apoE KO mice after myriocin treatment
Description: The small intestine was dissected out and put into 4% paraformaldehyde for fixation overnight. The tissue was then sliced (10 micrometer thick). Each slice was deparaffinized and stained with hematoxylin and eosin. The morphology was checked by microscope. WT mice fed chow diet (FIGS. 2A, 2B) or chow diet plus myriocin (FIGS. 2C, 2D). FIGS. 2A and 2C are at 10× magnification, while FIGS. 2B and 2D are at 40× magnification.
The small intestine was dissected out and put into 4% paraformaldehyde for fixation overnight. The tissue was then sliced (10 micrometer thick). Each slice was deparaffinized and stained with hematoxylin and eosin. The morphology was checked by microscope. apoE KO mice fed chow diet (FIGS. 3A, 3B) or chow diet plus myriocin (FIGS. 3C, 3D). FIGS. 3A and 3C are at 10× magnification, while FIGS. 3B and 3D are at 40× magnification.
Mouse small intestine hematoxylin and eosin staining: The small intestine was dissected out and put into 4% paraformaldehyde for fixation overnight. The tissue was then sliced (10 micro m thick). Each slice was deparaffinized and stained with hematoxylin and eosin.
To investigate whether myriocin treatment or Sptlc1^+/− had any impact on small intestine morphology, intestinal sections were stained with hematoxylin and eosin. As shown in FIGS. 2 through 4, neither myriocin treatment nor Sptlc1^+/− influenced the morphology of the small intestine.

enterocytes = assay: Mouse enterocyte lipid measurement; assay type: in vivo
Method: The mechanisms responsible for decreased cholesterol absorption in myriocin-treated or Sptlc1^+/− mice were explored. First, lipid levels were measured in enterocytes isolated from myriocin-treated and Sptlc1^+/− mice, as well as controls.

NPC1L1 = assay: Western blot of small intestine homogenates, NPC1L1; assay type: in vivo, mouse; settings: WT and apoE KO mice, compared with nontreated animals
Method: FIG. 8 depicts that SPT deficiency decreased NPC1L1 and ABCA1, and increased ABCG5 in mouse small intestine. Tissue homogenates were prepared as described in Methods, and equal amounts of homogenates from each mouse were pooled in each group (n=5). A total of 50 microg pooled sample from each group was immunoblotted with antibodies against NPC1L1, ABCA1, and ABCG5. Immunoblots of beta (β)-actin were used as a loading control.
Preparation and Western blot analysis of small intestine homogenates: A total of 50-100 mg of small intestine sample was homogenized and lysed proteins were immunoblotted, as previously described, (3) with a polyclonal rabbit antihuman NPC1L1 antiserum 69B, a polyclonal rabbit antimouse ABCG5 antiserum, a polyclonal antimouse ABCA1 antibody, and a monoclonal mouse anti-(beta)β-actin antibody.
Next, Western blot measurements of NPC1L1 and ABCG5/G8 were completed, where the measurement were located in apical membranes of the enterocytes. […] Also, ABCA1 was measured, which is located in the basal membranes of the enterocytes and is involved in cholesterol secretion.

[1] = myriocin-treated mice vs controls

Structure (SMILES): CCCCCCC(=O)CCCCCC/C=C/C[C@@H](O)[C@H](O)[C@@](N)(CO)C(=O)O [Myriocin, myriocin]
- decrease of ABCA1 mRNA levels (ABCA1 mRNA; WT mice): 20%
- decrease of ABCA1 mRNA levels (ABCA1 mRNA; apoE KO mice): 18%
- decrease of ABCA1 mRNA levels compared with controls (ABCA1 mRNA; WT mice): 48%
- decrease of ABCA1 mRNA levels compared with controls (ABCA1 mRNA; apoE KO mice): 39%
- morphology / pathological changes of the small intestine (gastrointestinal toxicity) (small intestine): no pathological changes; also recorded: intact villi, epithelia, enterocytes, goblet cells, and brush borders
- enterocyte Chol (cholesterol) (enterocytes; WT mice, mean ± SD, N=5-7): 16.2 ± 1.2 microg/mg protein
- enterocyte PC (phosphatidylcholine) (enterocytes; WT mice, mean ± SD, N=5-7): 27.9 ± 2.3 microg/mg protein
- enterocyte SM (sphingomyelin) (enterocytes; WT mice, mean ± SD, N=5-7): 6.2 ± 0.9 microg/mg protein
- enterocyte TG (triglycerol) (enterocytes; WT mice, mean ± SD, N=5-7): 11.1 ± 1.9 microg/mg protein
- SM levels in enterocytes, in words (enterocytes; [1]): significantly decreases
- cellular cholesterol, phosphatidylcholine, or triglyceride levels in enterocytes, in words (enterocytes; [1]): no effect
- NPC1L1 protein mass in small intestine (NPC1L1): significantly decreased
